Laboratory results reported in US8946198B2, “Estrogen replacement regimen” (priority 2002, dated 2015).

Columns and labels:
[1] = molecular target: T1, progesterone receptors (Homo sapiens, UniProt P06401); conditions: cited from earlier work
T1 sequence (P06401 1-933): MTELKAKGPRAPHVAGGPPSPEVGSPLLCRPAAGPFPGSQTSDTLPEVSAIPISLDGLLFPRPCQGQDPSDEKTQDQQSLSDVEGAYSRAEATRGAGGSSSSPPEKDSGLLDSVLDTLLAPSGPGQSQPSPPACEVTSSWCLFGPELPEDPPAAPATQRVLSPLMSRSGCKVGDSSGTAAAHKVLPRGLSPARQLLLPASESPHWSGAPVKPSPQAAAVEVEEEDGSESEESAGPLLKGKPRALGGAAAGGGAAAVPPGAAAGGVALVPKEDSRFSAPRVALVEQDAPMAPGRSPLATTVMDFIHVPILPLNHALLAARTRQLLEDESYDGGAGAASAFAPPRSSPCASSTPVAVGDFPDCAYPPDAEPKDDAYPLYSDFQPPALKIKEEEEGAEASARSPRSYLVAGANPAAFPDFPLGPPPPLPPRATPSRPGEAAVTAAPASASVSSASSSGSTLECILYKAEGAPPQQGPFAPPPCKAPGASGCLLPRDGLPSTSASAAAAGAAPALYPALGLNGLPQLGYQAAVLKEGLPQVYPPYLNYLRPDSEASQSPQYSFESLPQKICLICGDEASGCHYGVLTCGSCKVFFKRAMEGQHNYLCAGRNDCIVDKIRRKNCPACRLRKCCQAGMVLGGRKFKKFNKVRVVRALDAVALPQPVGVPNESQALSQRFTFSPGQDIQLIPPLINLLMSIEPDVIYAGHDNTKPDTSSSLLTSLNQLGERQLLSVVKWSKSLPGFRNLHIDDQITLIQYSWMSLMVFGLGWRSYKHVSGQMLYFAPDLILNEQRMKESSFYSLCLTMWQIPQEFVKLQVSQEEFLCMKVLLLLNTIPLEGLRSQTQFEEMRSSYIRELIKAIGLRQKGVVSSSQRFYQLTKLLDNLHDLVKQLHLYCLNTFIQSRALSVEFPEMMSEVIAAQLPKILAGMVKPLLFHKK

[2] = molecular target: T2, human sex-hormone-binding globulin (SHBG) (Homo sapiens, UniProt P04278); conditions: cited from earlier work
T2 sequence (P04278 30-402): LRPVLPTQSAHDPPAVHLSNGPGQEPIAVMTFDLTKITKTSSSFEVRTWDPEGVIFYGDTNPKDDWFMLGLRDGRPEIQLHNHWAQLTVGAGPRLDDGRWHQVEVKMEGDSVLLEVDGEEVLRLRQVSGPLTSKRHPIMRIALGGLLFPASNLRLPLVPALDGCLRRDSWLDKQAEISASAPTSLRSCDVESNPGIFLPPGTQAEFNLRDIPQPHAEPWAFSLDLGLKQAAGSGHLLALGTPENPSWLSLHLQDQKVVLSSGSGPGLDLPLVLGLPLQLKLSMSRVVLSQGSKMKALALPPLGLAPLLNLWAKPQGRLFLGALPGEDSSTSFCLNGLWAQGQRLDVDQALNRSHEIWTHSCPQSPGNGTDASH

[3] = tested on: non-pregnant, oophorectomized ewes; test: Uterine blood flow, MAP and heart rate during bolus vs continuous estradiol, first phase; assay type: in vivo, sheep
Procedure: In the study, fifteen non-pregnant, oophorectomized ewes were implanted with doppler flow probes (Transonic System, Ithaca, N.Y.) on the uterine artery and indwelling catheters were placed in the femoral artery and vein for mean arterial pressure (MAP) measurements and estrogen administration respectively. All animals were oophorectomized. MAP, heart rate (HR) and uterine blood flow (UBF) were recorded for 30 minutes daily for 14 days after at least 60 minutes of adaptation in the recording room. A baseline for each parameter of each sheep was established by averaging values obtained from day 8 through 14 after the last surgery. On day 14, sheep were divided randomly into three groups consisting of 5 animals each. […] The third group (Control) served as a vehicle control. Treatment groups received estrogen from day 15 through 28 and parameters were recorded daily throughout this period. […] It seems that none of the outcome parameters achieved a steady state during the study period.

[4] = tested on: non-pregnant, oophorectomized ewes; test: Restoration of the uterine blood flow response after continuous infusion, second phase; assay type: in vivo, sheep; conditions: after continuous infusion 220 μg day 15-28
Procedure: In the second phase of the study an ultra-low dose of estrogen (0.01 μg/Kg) was administered to try to restore the response, which was most diminished in the first phase of the study by continuous infusion. The second phase of the study involved continuous infusion of 220 μg of estradiol from day 15 to 28 in another 15 sheep followed by randomization into 3 groups (See FIG. 1). […] UBF was measured throughout the study.

[5] = tested on: estrogen receptor (ER); conditions: ovariectomized non-pregnant sheep, myometrium and endometrium; cited from earlier work
[6] = continuous iv infusion 220 μg daily

SMILES | binding to progesterone receptors [1] | affinity for SHBG [2] | HR on the first day [3, 6] | HR on the second day [3, 6] | MAP decrease in the first two days [3, 6] [%] | increase in UBF at two days of treatment [3, 6] [%] | UBF for the next 12 days of the study ([3]; continuous iv infusion 220 μg daily, after day 2 of treatment) | MAP during the rest of the study ([3]; continuous iv infusion 220 μg daily, after the first two days) | UBF after 24 hours (before the next bolus) ([3]; daily single iv bolus 10 μg/kg) | daily intermittent increase in HR ([3]; daily single iv bolus 10 μg/kg) | effect on MAP (mean arterial pressure) ([3]; daily single iv bolus 10 μg/kg) | HR decrease to levels below the baseline after 24 hours ([3]; daily single iv bolus 10 μg/kg, 24 hours after bolus) | increase in UBF (uterine blood flow), start of gradual increase ([3]; daily single iv bolus 10 μg/kg, start of the gradual increase in the first 4 days, vs baseline) [%] | UBF response to standard bolus doses after 2 days of ultra-low boluses ([4]; 0.01 μg/Kg bolus 2 days, then standard daily bolus (printed 1 μg/Kg) for 3 days (FIG. 4)) | UBF response to standard bolus doses after 2 days of standard boluses ([4]; 10 μg/Kg bolus 2 days, then 10 μg/Kg for 3 more days (FIG. 3)) | UBF response to standard bolus doses after 2 days of saline boluses ([4]; saline 2 days, then 10 μg/Kg bolus daily for 3 days (FIG. 2)) | effect on ER expression at physiologic concentrations [5] | effect on ER expression at supra-physiologic doses [5]
C#C[C@]1(O)CC[C@H]2[C@@H]3CCC4=CCCC[C@@H]4[C@H]3C(=C)C[C@@]21CC [desogestrel, 13-ethyl-11-methylene-18,19-dinor-17 alpha-pregn-4-en-20-yn-17-ol] | bind to progesterone receptors | lack of affinity | – | – | – | – | – | – | – | – | – | – | – | – | – | – | – | –
C[C@]12CC[C@@H]3c4ccc(O)cc4CC[C@H]3[C@@H]1CC[C@@H]2O [17β-estradiol] | – | – | increased significantly | dropped to baseline levels | 8.6±4 | 1854.2±527.9 | returned almost to baseline levels | gradually increased to baseline levels | returned almost to baseline levels | 15-20% | did not affect MAP | 8-10% | 489±206.5 | complete response | no response at all | partial response | promoted ER expression | inhibited ER expression
C#C[C@]1(OC(C)=O)CC[C@H]2[C@@H]3CCC4=CC(=NO)CC[C@@H]4[C@H]3CC[C@@]21CC (mixture of isomers) [norgestimate] | bind to progesterone receptors | lack of affinity | – | – | – | – | – | – | – | – | – | – | – | – | – | – | – | –
